Patent US4073912A, “Piperidylidene derivatives of benzo-fused xanthenes, thioxanthenes and dibenzoxepins and antipsychotic use thereof” (priority 1976, dated 1978)
Where a name gives a salt, the structure may show the parent alone. Read-outs that look alike come from different tables or passages of the source.

How the values were obtained:
[1] = test system: shock avoidance acquisition; assay: Blockade (antagonism) of shock avoidance acquisition in rats; type: in vivo; conditions: Rattus norvegicus, ip, read-out: ED50 for antagonism (blockade) of avoidance acquisition (A)
Description: (§1) To predict the potential ability of a drug to cause EPS, the ratio of its ED50 (i.p.) for antagonism of amphetamine-induced rotation to its ED50 (i.p.) for blockade of shock avoidance acquisition in the rat, a procedure for assessing antipsychotic activity, (R/A ratio) is calculated. The ED50 values of some clinically established antipsychotics in the avoidance and rotational tests and the R/A ratios are presented in Table I.

[2] = compared with chlorpromazine; cited from earlier work
[3] = in vivo; type: in vivo, rat; conditions: rat, in vivo, ip, rat
From the text: (§2) There is evidence that antipsychotic drugs cause EPS by interfering with neurotransmission in a nigrostriatal dopaminergic pathway. It is thought that they block dopamine receptors in the neostriatum. Therefore, the ability of a drug to block striatal dopamine receptors is a measure of its EPS liability.
(§3) This treatment causes degeneration of the nigrostriatal dopaminergic pathway accompanied by a marked decrease in the dopamine content of the neostriatum on the side of the lesion. Animals with this lesion develop postural and motor asymmetries which are altered by drugs which affect dopaminergic activity. Amphetamine, which releases dopamine and norepinephrine from catecholaminergic neurons, causes these rats to rotate unidirectionally toward the side of the lesion; i.e., ipsilaterally. Since there is a much larger amount of dopamine to be released by amphetamine from the intact nigrostriatal neurons on the non-lesioned side than from those remaining on the lesioned side, the rotational behavior is apparently due to a preponderance of activation of striatal dopamine receptors on the intact side. The ability of a drug to antagonize the rotational behavior is therefore a measure of its ability to block striatal dopamine receptors and is indicative of its potential to produce EPS.
as §1

[4] = test system: striatal dopamine receptors; assay: in vivo; type: in vivo, rat; conditions: for R/A ratio: rat; for ED50 for antagonism of amphetamine-induced rotation (R): rats with unilateral 6-hydroxydopamine lesion, i.p.
From the text: as §2, §3, §1

[5] = ED50 (i.p.) rotation / ED50 (i.p.) avoidance, high ratio predicts low potential to produce EPS, read-out: R/A ratio

| SMILES | ED50 ([1]; rats, i.p.) [mg/kg] | ED50 [1] [mg/kg] | propensity to cause EPS [2] | selectivity ratio [3, 5] | R/A ratio ([4]; ED50 (i.p.) rotation / ED50 (i.p.) avoidance, high ratio predicts low potential to produce EPS) | ED50 for antagonism of amphetamine-induced rotation (R) [4] [mg/kg] | selectivity ratio ([3]; read-out: R/A ratio) | EPS liability ([4]; indicated by R/A ratio of 10) | selectivity ratio ([3]; R/A ratio) | R/A ratio ([4]; in vivo, ip) |
| --- | --- | --- | --- | --- | --- | --- | --- | --- | --- | --- |
| CSc1ccc2c(c1)N(CCC1CCCCN1C)c1ccccc1S2 (centres unmarked) [Thioridazine] | 5.1 | – | – | – | – | – | – | – | – | – |
| O=c1[nH]c2ccccc2n1C1CCN(CCCC(c2ccc(F)cc2)c2ccc(F)cc2)CC1 [Pimozide] | – | 0.24 | considerably greater propensity to cause EPS than chlorpromazine | 0.3 | 0.3 to 0.5 | 0.08 | – | – | – | – |
| CN1CCN(C2=Nc3cc(Cl)ccc3Nc3ccccc32)CC1 [Clozapine] | 6.6 | – | produce EPS to a lesser extent than chlorpromazine | – | – | – | 3.8 | – | – | – |
| CN1CCC(=C2c3ccccc3Oc3ccc4ccccc4c32)CC1 [12-(1-methyl-4-piperidylidene)-12H-benzo a!xanthene hydrochloride] | 0.64 | – | – | 10 | – | 6.4 | – | essentially free of EPS liability | – | – |
| CN1CCN(CCCN2c3ccccc3Sc3ccc(C(F)(F)F)cc32)CC1 [Trifluoperazine] | 0.26 | – | considerably greater propensity to cause EPS than chlorpromazine | – | – | 0.12 | – | – | 0.46 | 0.3 to 0.5 |
| O=C(CCCN1CCC(O)(c2ccc(Cl)cc2)CC1)c1ccc(F)cc1 [Haloperidol] | – | 0.16 | considerably greater propensity to cause EPS than chlorpromazine | – | – | 0.05 | – | – | 0.31 | 0.3 to 0.5 |
| CN(C)CCCN1c2ccccc2Sc2ccc(Cl)cc21 [Chlorpromazine] | – | 1.5 | – | 1.3 | – | 2.0 | – | – | – | – |
